Test results taken from patent US20190290623A1, “USE OF TIOTROPIUM BROMIDE TO PREVENT PULMONARY OXYGEN TOXICITY” (priority 2018, published 2019).
Entries after “also recorded” stand apart in the source; their conditions may differ.

Key:
Assay type in all cases: in vivo
[1] = tested on: swine exposed to 1.5 ATA hyperbaric oxygen for 17.5 hr; assay: Experiment 1 shallow exposure simulation: pulmonary capacities; settings: 1.5 ATA O2 17.5 hr, percent change from baseline
Procedure: (§1) Experiment 1 is designed to evaluate the efficacy of tiotropium bromide administered pre-dive in reducing decrements in pulmonary function due to PO2T following a 17.5 hour, 1.5 ATA hyperbaric oxygen exposure. This dive profile was selected because it was of sufficient duration to elicit persistent pulmonary function decrement in humans.
(§2) The swine were anesthetized with propofol (20 cc, I.V. target, adjusted as needed to optimize sedation), intubated and ventilated. Anesthetized swine were shaved, then ECG and EEG electrodes were placed. Animals were then paralyzed with Atracurium Besylate (50 mg, IV) for accurate pulmonary function measurements of quasi-static and dynamic compliance.
Following baseline pulmonary function measurements, the swine were randomized to receive equivalent volumes of normal saline or tiotropium bromide (18 mcg) via nebulizer. The swine were then ventilated until muscle tone was regained. Sedation was discontinued and the swine were extubated, transported to the hyperbaric chamber and allowed to recover until able to independently stand. Once able to stand, animals had electrode leads attached and IV tubing connected to the ear vein catheter. The chamber hatch was then closed and the swine compressed to 1.5 ATA on air.
(§3) Next, the swine were switched to 100% oxygen breathing gas and remained at 1.5 ATA for 17.5 hr. At the end of the 17.5 hour 1.5 ATA oxygen exposure, swine surfaced at a rate of 1 ATA/minutes (ATA/min), were transferred to a Panepinto sling, sedated with diazepam (1.5-2.0 mg/kg, I.V) and reassessed via impulse Oscillometry. The swine were again anesthetized with propofol and intubated. When fully sedated, the swine were ventilated, paralyzed with Atracurium Besylate, and post-dive measurements of pulmonary function were recorded. During all phases of study the swine were continuously monitored for signs of seizure or distress.
Baseline and post-dive assessments of pulmonary compliance were conducted on each animal enrolled in the study. […] These values were expressed as percent change from baseline.

[2] = tested on: swine exposed to 1.5 ATA hyperbaric oxygen for 17.5 hr; assay: Experiment 1 shallow exposure simulation: pulmonary compliance; settings: 1.5 ATA O2 17.5 hr; 18 mcg nebulized pre-dive; n=7; p=0.8364
Procedure: as §1, §2
Following baseline pulmonary function measurements, the swine were randomized to receive equivalent volumes of normal saline or tiotropium bromide (18 mcg) via nebulizer. The swine were then ventilated until muscle tone was regained. […]
Next, the swine were switched to 100% oxygen breathing gas and remained at 1.5 ATA for 17.5 hr. […] When fully sedated, the swine were ventilated, paralyzed with Atracurium Besylate, and post-dive measurements of pulmonary function were recorded. During all phases of study the swine were continuously monitored for signs of seizure or distress. […]

[3] = tested on: swine exposed to 2.5 ATA hyperbaric oxygen for 5.5 hr; assay: Experiment 2 deep exposure simulation: pulmonary compliance
Procedure: (§4) Experiment 2 is designed to evaluate the efficacy of tiotropium bromide pre-dive with respect to reducing decrements in pulmonary function due to PO2T following a 5.5 hour, 2.5 ATA hyperbaric oxygen exposure. This dive profile was selected because it caused the most significant pulmonary function deficits in humans with minimal risk of seizure due to CNS oxygen toxicity.
(§5) Pulmonary function testing: The swine had disposable prewired electrodes adhered to the dermis over the gluteal muscle and a train of four (TOF) stimulation was initiated to confirm proper placement and twitch using a DigiStim III Peripheral Nerve Stimulator (Neuro Technology Inc., Kerrville, Tex.). Atracurium besylate (50 mg, IV) (hospira, Lake Forest, Ill.) was injected into the ear vein catheter, and the swine was observed until cessation of muscle twitch with TOFs. The swine was then disconnected from the ventilator circuit, allowed to passively exhale, and connected to an O2 filled 3 L super syringe (Hamilton Company, Reno, Nev.) attached to a pressure gauge (OMEGA®, Norwalk, Conn.), and pneumotachometer (Harvard Apparatus, Holliston, Mass.). Oxygen was introduced in 100 ml increments every 3 seconds until a static pressure of 40 cm H2O was reached. The lungs were then deflated in 100 ml increments until a static pressure of −40 cm H2O. The swine was then reconnected to the ventilator and ventilated for 2 minutes before repeating the insufflation and exhalation maneuvers and measurements one more time. […] After the above measurements, swine received either nebulized Tiotropium (18 μg dissolved in saline) or an equal volume of 0.9% saline through the breathing circuit over the course of 15 minutes. The propofol infusion was then stopped, the animals were then monitored until a swallow reflex was observed then extubated. The swine were then transported to the hyperbaric chamber suite and allowed to recover until capable of standing.
Hyperbaric Exposures: Individual animals were then placed into a Plexiglas box (30 in.×42 in.×38 in., manufactured in-house) within a Multiple Large Animal Chamber (MLAC), which is a steel-hulled hyperbaric chamber (450-cubic ft. floodable volume and pressure tested to 1,230 feet of seawater [fsw] equivalent) (Bethlehem Steel Corp, Bethlehem Pa.). Pressure/depth was monitored by a CPG 2500 Digital Pressure Gauge (Mensor Corp., San Marcos, Tex.). Swine were dove in pairs with each treatment group represented. Swine box assignment was alternated with respect to treatment to avoid any effects associated with individual box environmental features. Animals were monitored via closed-circuit television to observe signs of distress related to middle ear barotrauma (e.g. head shaking, nystagmus) and seizure activity. Oxygen concentration was measured and recorded using a portable O2 analyzer (Teledyne Analytical Inst, City of Industry, Calif.). After positioning the animal inside the Plexiglas box, the MLAC was sealed and pressurized using air at the rate of I ATA/minute to a depth of 2.5 ATA. After 2.5 min at a bottom depth equivalent to 2.5 ATA, the breathing gas was switched to 100% O2 and maintained for 5.5 Hrs. After completing 5.5 Hrs on 100% O2, the inspired gas was switched back to air for 3 min. Then, the chamber was decompressed at 1 ATA/minute. Upon reaching surface the animal was transported to the surgical suite for post-dive ECG and pulmonary function measurements (identical to the pre-dive procedures). […]

[4] = tested on: swine exposed to 1.5 ATA hyperbaric oxygen for 17.5 hr; assay: Experiment 1: adverse effects observation
Procedure: as §3
Once measurements were complete, animals were then euthanized by intravenous infusion of euthanasia solution (Euthasol 1-1.5 ml/10 lbs. body weight) and transported to the necropsy suite for post-mortem sample collection.

[5] = tested on: swine exposed to 2.5 ATA hyperbaric oxygen for 5.5 hr; assay: Experiment 2 deep exposure simulation: pulmonary capacity (pressure-volume loops); settings: 2.5 ATA O2 5.5 hr
Procedure: as §4, §5
Hyperbaric Exposures: Individual animals were then placed into a Plexiglas box (30 in.×42 in.×38 in., manufactured in-house) within a Multiple Large Animal Chamber (MLAC), which is a steel-hulled hyperbaric chamber (450-cubic ft. floodable volume and pressure tested to 1,230 feet of seawater [fsw] equivalent) (Bethlehem Steel Corp, Bethlehem Pa.). Pressure/depth was monitored by a CPG 2500 Digital Pressure Gauge (Mensor Corp., San Marcos, Tex.). Swine were dove in pairs with each treatment group represented. Swine box assignment was alternated with respect to treatment to avoid any effects associated with individual box environmental features. Animals were monitored via closed-circuit television to observe signs of distress related to middle ear barotrauma (e.g. head shaking, nystagmus) and seizure activity. Oxygen concentration was measured and recorded using a portable O2 analyzer (Teledyne Analytical Inst, City of Industry, Calif.). After positioning the animal inside the Plexiglas box, the MLAC was sealed and pressurized using air at the rate of I ATA/minute to a depth of 2.5 ATA. After 2.5 min at a bottom depth equivalent to 2.5 ATA, the breathing gas was switched to 100% O2 and maintained for 5.5 Hrs. After completing 5.5 Hrs on 100% O2, the inspired gas was switched back to air for 3 min. Then, the chamber was decompressed at 1 ATA/minute. Upon reaching surface the animal was transported to the surgical suite for post-dive ECG and pulmonary function measurements (identical to the pre-dive procedures). The animal was then euthanized via ear vein infusion of Euthasol (1.0-1.5 ml/10 lbs body weight) followed by a saline flush (5 cc).
Pulmonary function data analysis: Pressure and flow data from the pressure gauge and pneumotachometer respectively were collected by a Dell Laptop (Round Rock, Tex.) and an analog-digital converter card (PCI-6052E, National Instruments, Austin, Tex.) with 16 bit resolution and 200 Hz sampling rate running Labchart 8.0. […]

C[N+]1(C)[C@@H]2C[C@@H](OC(=O)C(O)(c3cccs3)c3cccs3)C[C@H]1[C@@H]1O[C@@H]12 [Tiotropium, tiotropium bromide]
Vital Capacity, Saline vs Tiotropium ([1]; p=0.394): no significant differences
Expiratory Reserve Volume, Saline vs Tiotropium ([1]; p=0.445): no significant differences
Inspiratory capacity, Saline vs Tiotropium ([1]; p=0.879): no significant differences
pulmonary compliance, baseline vs post-dive [2]: no significant changes
pulmonary compliance, inspiratory arm, post-exposure vs baseline ([3]; 2.5 ATA O2 5.5 hr, 1st set of measurements, n=7, p=0.1999): no significant difference
expiratory compliance, post-exposure vs baseline ([3]; 2.5 ATA O2 5.5 hr, 1st set of measurements, n=7, p=0.5711): did not exhibit any decrement
pulmonary compliance, expiratory arm, post-exposure vs baseline ([3]; 2.5 ATA O2 5.5 hr, 2nd set of measurements, n=9, p=0.0438): significant decrement
pulmonary compliance, inspiratory arm, post-exposure vs baseline ([3]; 2.5 ATA O2 5.5 hr, 2nd set of measurements, n=9, p=0.7388): no significant change
pulmonary compliance after hyperbaric oxygen exposure ([3]; 2.5 ATA for 5.5 hrs, 18 μg inhaled, nebulized, prophylactic, p=0.9094): no decrement in pulmonary compliance; also recorded: no change
adverse effect on outcome at any of the assessed endpoints ([4]; 1.5 ATA O2 17.5 hr, 18 mcg nebulized pre-dive): no observable adverse effect
adverse reactions (including seizure) ([4]; 1.5 ATA oxygen exposure): no adverse reactions
change in VC following hyperbaric exposure ([5]; 1st set of measurements): no change
decrease in IC following hyperbaric exposure ([5]; 1st set of measurements, n=7, p=0.2217, mean ± SEM): 57.14 ± 34.11 mL
increase in ERV following hyperbaric exposure ([5]; 1st set of measurements, n=7, p=0.6315, mean ± SEM): 57.14+62.65 ml
increase in VC following hyperbaric exposure ([5]; 2nd set of measurements, n=9, mean ± SEM): 22.22+52.69 ml
increase in ERV following hyperbaric exposure ([5]; 2nd set of measurements, n=9, p=0.4806, mean ± SEM): 44.44 ± 39.49 mL
decrease in IC following hyperbaric exposure ([5]; 2nd set of measurements, n=9, p=0.5300, mean ± SEM): 33.33 ± 31.94 mL
Inspiratory capacity, Saline vs Tiotropium groups ([5]; percent change from baseline, averaged, p=0.266): no significant differences
Vital Capacity, Saline vs Tiotropium groups ([5]; percent change from baseline, averaged, p=0.325): no significant differences
Expiratory Reserve Volume, Saline vs Tiotropium groups ([5]; percent change from baseline, averaged, p=0.900): no significant differences
